Literature values, collected in US20260008814A1, “DEVELOPMENT OF PEPTIDES WITH ANTI-CANCER AND ANTIMICROBIAL PROPERTIES” (YILDIZ TEKNIK ÜNIVERSITESI DÖNER SERMAYE ISLETME MÜD, priority 2023, published 2026).

System: F. nucleatum attachment and invasion of HCT116

## ASANWTIQYND
  inhibition of F. nucleatum attachment and invasion: inhibitory peptide
